{"source": "patent US6083932A", "about": "“Pharmaceutical compositions derived from ginseng and methods of treatment using same” (CV Technologies Inc., priority 1998, dated 2000)", "tested_on": "choline uptake in rat brain synaptomes", "experiment": "choline uptake in rat brain synaptosomes (Example 2)", "assay_type": "biochemical", "details": "mean ± SE, n = 4", "from_the_text": "Example 2 is a comparison of several batches of Rb1 extract, an extract of total ginsenosides (TS) containing 25% Rb1, 19.4% Rc1 and 21.6% Rg1+Re, and HT1001 on choline uptake in rat brain synaptomes. The Rb1 tested had greater than 98% purity. Rb1-52, Rb1-53 and Rb1-54 represent three different batches of Rb1."}
{"smiles": "CC(C)=CCC[C@](C)(O[C@@H]1O[C@H](CO[C@@H]2O[C@H](CO)[C@@H](O)[C@H](O)[C@H]2O)[C@@H](O)[C@H](O)[C@H]1O)[C@H]1CC[C@]2(C)[C@@H]1[C@H](O)C[C@@H]1[C@@]3(C)CC[C@H](O[C@@H]4O[C@H](CO)[C@@H](O)[C@H](O)[C@H]4O[C@@H]4O[C@H](CO)[C@@H](O)[C@H](O)[C@H]4O)C(C)(C)[C@@H]3CC[C@]12C", "note": "[Rb1-53, ginsenoside Rb1]", "values": [{"measurement": "choline uptake", "setting": "0.0011 mg/l", "result": "106 ± 1.3 % of control"}, {"measurement": "choline uptake", "setting": "0.011 mg/l", "result": "109 ± 3.6 % of control"}, {"measurement": "choline uptake", "setting": "0.11 mg/l", "result": "109 ± 3.8 % of control"}, {"measurement": "choline uptake", "setting": "1.1 mg/l", "result": "112 ± 4.8 % of control"}, {"measurement": "choline uptake", "setting": "11 mg/l", "result": "114 ± 2.5 % of control"}]}
{"smiles": "CC(C)=CCC[C@](C)(O[C@@H]1O[C@H](CO[C@@H]2O[C@H](CO)[C@@H](O)[C@H](O)[C@H]2O)[C@@H](O)[C@H](O)[C@H]1O)[C@H]1CC[C@]2(C)[C@@H]1[C@H](O)C[C@@H]1[C@@]3(C)CC[C@H](O[C@@H]4O[C@H](CO)[C@@H](O)[C@H](O)[C@H]4O[C@@H]4O[C@H](CO)[C@@H](O)[C@H](O)[C@H]4O)C(C)(C)[C@@H]3CC[C@]12C", "note": "[Rb1-52, ginsenoside Rb1]", "values": [{"measurement": "choline uptake", "setting": "0.0011 mg/l", "result": "108 ± 5.7 % of control"}, {"measurement": "choline uptake", "setting": "0.011 mg/l", "result": "108 ± 4.4 % of control"}, {"measurement": "choline uptake", "setting": "0.11 mg/l", "result": "108 ± 5.8 % of control"}, {"measurement": "choline uptake", "setting": "1.1 mg/l", "result": "109 ± 5.4 % of control"}, {"measurement": "choline uptake", "setting": "11 mg/l", "result": "111 ± 3.7 % of control"}]}
{"smiles": "CC(C)=CCC[C@](C)(O[C@@H]1O[C@H](CO[C@@H]2O[C@H](CO)[C@@H](O)[C@H](O)[C@H]2O)[C@@H](O)[C@H](O)[C@H]1O)[C@H]1CC[C@]2(C)[C@@H]1[C@H](O)C[C@@H]1[C@@]3(C)CC[C@H](O[C@@H]4O[C@H](CO)[C@@H](O)[C@H](O)[C@H]4O[C@@H]4O[C@H](CO)[C@@H](O)[C@H](O)[C@H]4O)C(C)(C)[C@@H]3CC[C@]12C", "note": "[Rb1-54, ginsenoside Rb1]", "values": [{"measurement": "choline uptake", "setting": "0.0011 mg/l", "result": "108 ± 3 % of control"}, {"measurement": "choline uptake", "setting": "0.011 mg/l", "result": "110 ± 3.4 % of control"}, {"measurement": "choline uptake", "setting": "0.11 mg/l", "result": "110 ± 2.6 % of control"}, {"measurement": "choline uptake", "setting": "1.1 mg/l", "result": "112 ± 1.2 % of control"}, {"measurement": "choline uptake", "setting": "11 mg/l", "result": "111 ± 2.6 % of control"}]}
